Experimental data from patent publication US20070275961A1, “Triazolo ' 1, 5-A ! Pyrimidines and Their Use in Medicine” (VERNALIS (CAMBRIDGE) LIMITED., priority 2003, published 2007).
Read-outs that look alike come from different tables or passages of the source.

Columns and labels:
[1] = molecular target: T1, PDK1 enzyme (Homo sapiens, UniProt O15530); experiment: PDK1 3'-phosphoinositide-dependent kinase assay, phosphorylation of synthetic peptide (33P-ATP filtration); format: biochemical
T1 sequence (O15530 1-556): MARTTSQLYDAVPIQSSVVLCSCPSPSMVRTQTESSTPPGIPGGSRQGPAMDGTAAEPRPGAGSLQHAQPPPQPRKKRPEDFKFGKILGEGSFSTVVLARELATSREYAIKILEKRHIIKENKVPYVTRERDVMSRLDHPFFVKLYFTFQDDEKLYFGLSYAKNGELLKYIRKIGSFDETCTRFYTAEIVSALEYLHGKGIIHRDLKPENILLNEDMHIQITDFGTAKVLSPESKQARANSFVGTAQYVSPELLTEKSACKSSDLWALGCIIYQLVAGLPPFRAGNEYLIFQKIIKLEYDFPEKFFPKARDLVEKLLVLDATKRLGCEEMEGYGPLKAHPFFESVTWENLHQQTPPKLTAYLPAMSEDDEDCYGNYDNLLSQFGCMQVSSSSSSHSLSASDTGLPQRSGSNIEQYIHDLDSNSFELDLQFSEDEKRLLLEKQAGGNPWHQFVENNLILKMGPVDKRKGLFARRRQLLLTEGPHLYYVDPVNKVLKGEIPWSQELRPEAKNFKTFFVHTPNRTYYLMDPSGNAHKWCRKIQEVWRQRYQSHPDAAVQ
Description: The assay mixture containing the inhibitor and PDK1 enzyme was mixed together in a microtiter plate in a final volume of 50 μl and incubated for 60 min at 30° C. The assay mixture contained 0.01 mM unlabeled ATP, 0.01 μCi/μl ^33P-γ-ATP, 0.075 mM peptide, 0.1 mg/ml BSA, 7.5 mM magnesium acetate, 0.05 M Tris.HCl, pH 7.5, 0.5% 2-mercaptoethanol. The reaction was stopped by adding 50 μl of 50 mM phosphoric acid. 90 μl of the mixture were transferred to a pre-wetted 96-well Multiscreen MAPHNOB filtration plate (Millipore) and filtered on a vacuum manifold. The filter plate was washed with three successive additions of 200 μl 50 mM phosphoric acid and then with 100 μl methanol. The filtration plate was dried for 10 min at 65° C., scintillant added and phosphorylated peptide quantified in a scintillation counter (Trilux, PerkinElmer).

[2] = molecular target: T2, Chk1 (Homo sapiens, UniProt O14757); experiment: Chk1 kinase assay, phosphorylation of Chktide (33P-ATP filtration); format: biochemical
T2 sequence (O14757 1-476): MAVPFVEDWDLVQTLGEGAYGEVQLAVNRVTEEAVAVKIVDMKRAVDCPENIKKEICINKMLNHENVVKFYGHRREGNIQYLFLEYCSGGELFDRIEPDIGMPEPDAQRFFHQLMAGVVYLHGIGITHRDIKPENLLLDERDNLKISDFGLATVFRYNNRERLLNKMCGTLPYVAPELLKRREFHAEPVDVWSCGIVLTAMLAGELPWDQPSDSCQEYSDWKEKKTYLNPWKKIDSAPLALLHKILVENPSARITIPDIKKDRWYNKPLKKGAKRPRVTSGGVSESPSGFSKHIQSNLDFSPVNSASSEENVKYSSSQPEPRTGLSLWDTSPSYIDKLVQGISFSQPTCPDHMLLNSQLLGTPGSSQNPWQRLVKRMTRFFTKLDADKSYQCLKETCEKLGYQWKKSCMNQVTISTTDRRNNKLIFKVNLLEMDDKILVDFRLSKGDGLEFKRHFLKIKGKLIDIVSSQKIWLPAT
Description: Assays for the Chk1 kinase activity were carried out by monitoring the phosphorylation of a synthetic peptide Chktide with the amino acid sequence, […]. The assay mixture containing the inhibitor and Chk1 enzyme was mixed together in a microtiter plate in a final volume of 50 μl and incubated for 40 minutes at 30° C.
The assay mixture contained 0.01 mM unlabeled ATP, 0.5 μCi ^33P-γ-ATP, 30 μM Chktide, 0.1 mg/ml BSA, 50 mM Hepes-NaOH pH 7.5 and 11 nM GST-Chk1 enzyme. The reaction was stopped by adding 50 μl of 50 mM phosphoric acid. 90 μl of the mixture was transferred to a pre-wetted 96-well Multiscreen MAPHNOB filtration plate (Millipore) and filtered on a vacuum manifold. The filter plate was washed with three successive additions of 200 μl 50 mM phosphoric acid and then with 100 μl methanol. The filtration plate was dried for 10 min at 65° C., scintillant added and phosphorylated peptide quantified in a scintillation counter (Trilux, PerkinElmer).

[3] = Table 4, 0.01 mM ATP, read-out: PDK1 IC50
[4] = Table 4, 0.01 mM ATP, read-out: Chk1 IC50
[5] = Table 1, 0.01 mM ATP, read-out: PDK1 IC50
[6] = Table 1, 0.01 mM ATP, read-out: Chk1 IC50

SMILES | IC50 [1, 3] [µM] | IC50 [2, 4] [µM] | other results
CN(C)c1ccc(Nc2cc(-c3cccc(F)c3)n3ncnc3n2)cc1 [Example 158] | 10.5 | 6.75 | 
CN(C)CCOc1cccc(-c2cc(Nc3ccc(C(N)=O)cc3)nc3ncnn23)c1 [Example 163] | 5.44 | 9.82 | 
CCCc1cc(OCCN(C)C)cc(-c2cc(Nc3ccc(C(N)=O)cc3)nc3ncnn23)c1 [Example 162] | 7.34 | 31.7 | 
CCc1cc(O)cc(-c2cc(Nc3ccc(C(=O)NCCN(CC)CC)cc3)nc3ncnn23)c1 [Example 164] | 1.6 | 0.66 | 
NS(=O)(=O)c1ccc(Nc2cc(NC3CCCCC3)nc3ncnn23)cc1 [Example 37] |  |  | IC50 [1, 5]: 64 µM; IC50 [2, 6]: > 200 µM
Fc1cccc(-c2cc(Nc3ccc(Sc4ccccc4)cc3)nc3ncnn23)c1 [Example 155] | 12.6 | 15.1 | 
NS(=O)(=O)c1ccc(Nc2cc(N[C@H]3CC[C@H](N)CC3)nc3ncnn23)cc1 [Example 36] |  |  | IC50 [1, 5]: 43.3 µM; IC50 [2, 6]: 93.5 µM
NC(=O)Cc1ccc(Nc2cc(-c3ccc4c(c3)OCO4)n3ncnc3n2)cc1 [Example 143] | 11.4 | 4.71 | 
CNS(=O)(=O)Cc1ccc(Nc2cc(-c3cccc(F)c3)n3ncnc3n2)cc1 [Example 159] | 7.66 | 22.6 | 
Fc1cccc(-c2cc(Nc3cccc(Oc4ccccc4)c3)nc3ncnn23)c1 [Example 152] | 13.4 | 32.7 | 
NC(=O)c1ccc(Nc2cc(-c3cccc(OCC4CCNCC4)c3)n3ncnc3n2)cc1 [Example 150] | 14.6 | 19.7 | 
CCOc1cccc(-c2cc(Nc3ccc(C(N)=O)cc3)nc3ncnn23)c1 [Example 144] | 12.2 | 68.3 | 
NC(=O)c1ccc(Nc2cc(-c3cccc(O)c3)n3ncnc3n2)cc1 [Example 142] | 4.66 | 3.92 | 
CCCc1cc(OC)cc(-c2cc(Nc3ccc(C(N)=O)cc3)nc3ncnn23)c1 [Example 160] | 1.32 | 15.8 | 
CCc1cc(OCCN)cc(-c2cc(Nc3ccc(C(=O)NCCN(CC)CC)cc3)nc3ncnn23)c1 [Example 167] | 3.99 | 3.39 | 
Brc1cccc(-c2cc(NCc3ccncc3)n3ncnc3n2)c1 [Example 55] |  |  | IC50 [1]: > 200 µM; IC50 [2]: > 200 µM
O=S(=O)(Nc1nccs1)c1ccc(Nc2cc(-c3cccc(F)c3)n3ncnc3n2)cc1 [Example 156] | 7.94 | 13 | 
NS(=O)(=O)c1ccc(Nc2cc(OCC3CCCCC3)nc3ncnn23)cc1 [Example 51] |  |  | IC50 [1, 5]: > 200 µM; IC50 [2, 6]: > 200 µM
CCN(CC)c1cc(NCC2CCNCC2)n2ncnc2n1 [Example 86] |  |  | IC50 ([1]; Table 2, 0.01 mM ATP, read-out: PDK1 IC50): > 200 µM; IC50 ([2]; Table 2, 0.01 mM ATP, read-out: Chk1 IC50): > 200 µM
Fc1cccc(-c2cc(Nc3ccc(Oc4ccccc4)cc3)nc3ncnn23)c1 [Example 153] | 12 | 24.7 | 
